# Measured values taken from PubChem BioAssay (NCI).
# Several values for one entry are separate records, joined by “and”; a condition that tells them apart may be missing. Equal values may be shown once.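 Step 1: Grow cells in 96-well plates. Step 2: Expose to compound for 48 hours at 5 concentrations. Step 3: Interpolate endpoints linearly; if unreached, use highest concentration. GI50 is the concentration that inhibits growth by half. TGI: total growth inhibition.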 *1 amine or outer side, *2 acyl side, *3 side chain or, on linkers, in order; H or OH if unused. Where a SMILES comes first, the peptide text is derived from it. [ ]: non-standard residue; d: D form. The star is where a group is joined. X11 = C/C=C/CC(C)C(O)[C@H](N[*:1])C(=O)[*:2]; Decanoyl = CCCCCCCCCC(=O)*; Leu(ol) = CC(C)C[C@H](N)CO; Iva = CC[C@](C)(N)C(=O)O; Aib = CC(C)(N)C(=O)O
# Test system: MDA-MB-468 breast
# Assay: inhibition of tumour cell growth, NCI panel, 48 h
SMILES,GI50,TGI
c1ccc(OCCC[P+](c2ccccc2)(c2ccccc2)c2ccccc2)cc1,230 nM,1490 nM
NC(=O)c1ccc(Oc2nccc(-c3c(-c4ccc(F)cc4)ncn3C3CCNCC3)n2)cc1,7400 nM,> 25000 nM
CC(=O)N1CCN(CCNC(=O)n2cc(-c3ccncc3)c(-c3cc(O)cc(Cl)c3)n2)CC1,4590 nM,20800 nM
C[C@@H]1CCC/C=C/[C@H]2C[C@@H](O)C[C@@H]2[C@@H](O)/C=C/C(=O)O1,64.8 nM,5030 nM
C#C[C@@]1(O)[C@@H](CO)O[C@@H](n2cc(I)c3c(N)ncnc32)[C@@H]1O,153 nM,561 nM
O=C(NCC(F)(F)F)Nc1cccc(-c2cnc3cc(-c4ccc(F)cc4)ccn23)c1,339 nM,1930 nM
CS(=O)(=O)Nc1cccc(-c2ccc3ncnc(Nc4ccc(F)c(Cl)c4)c3c2)c1,108 nM,860 nM
C#Cc1cccc(Nc2nc(Cl)nc3cc(NC(=O)CCl)ccc23)c1,500 nM,1170 nM
O=C1CSC(c2ccccc2Cl)N1c1nnc(Cn2cnnc2)o1 (centres undefined),3850 nM,17200 nM
Cc1c(C#N)cccc1[C@@H](C)Nc1nnc(C)c2cnc(N3CCOCC3)cc12,7630 nM,38100 nM
COc1ccc(-c2cc3c(C)nc(N)nc3n(C3CCC(OCCO)CC3)c2=O)cn1 (centres undefined),41.7 nM and 32.3 nM,270 nM and 256 nM
CN=C1C=CC(=C(c2ccc(N(C)C)cc2)c2ccc(N(C)C)cc2)C=C1,178 nM,539 nM
CN(C)CCCn1c(=O)c2ccccc2c2cnc3[nH]ccc3c21,493 nM,2530 nM
COc1ccc(C(=O)c2cc(C)c(OC)c(C)c2)c(OC)c1NC(C)=O,159 nM,–
O=C(NCCCc1cn[nH]c1)c1ccc(-c2ccncc2)c(C#Cc2ccc(F)cc2)c1,2140 nM,12800 nM
NS(=O)(=O)c1ccc(Nc2nc(N/N=C/c3ccc(C(F)(F)F)cc3)nc(Nc3ccccc3)n2)cc1,1730 nM,3870 nM
COc1cc(C2C3=C(COC3=O)N(CCO)c3cc4c(cc32)OCCO4)cc(OC)c1OC (centres undefined),106 nM,319 nM
O=C(/C=C/C=C/c1ccccc1)c1ccco1,5000 nM,25100 nM
CCN(CC)CCCC(C)Nc1cc(-c2cccc(OC(F)(F)F)c2)nc2ccc(N3CCCC3)cc12 (centres undefined),43.5 nM,44000 nM
COc1cccc2cc(N(C)c3nc(C)nc4c3CCC4)ccc12,< 10 nM,20500 nM

SMILES,GI50,TGI
CS(=O)(=O)c1ccc(Nc2nc(N[C@H]3CCCC[C@H]3N)nc3cc[nH]c(=O)c23)cc1,338 nM,1460 nM
CNCCCNc1nc2ccccc2c2c(=O)c3cc(OC)ccc3sc12,1760 nM,3470 nM
O=C(NC(=O)c1c(Cl)nc2sccn12)Nc1ccc(Cl)cc1,3950 nM,35700 nM
CSc1nc2nc3c(nc2c(=O)n1C)C(=O)c1ccccc1C3=O,140 nM,352 nM
Cn1cc(C2=C(c3c[nH]c4ccccc34)C(=O)NC2=O)c2ccccc21,470 nM,> 25000 nM
C/C=C/CC(C)C(O)[C@H](NC(=O)[C@@H]1CCCN1C(=O)[C@](C)(CC)NC(=O)CCCCCCCCC)C(=O)N[C@@](C)(CC)C(=O)N[C@@H](CCC(N)=O)C(=O)N[C@H](CCC(N)=O)C(=O)NC(C)(C)C(=O)NC(C)(C)C(=O)N[C@@H](CCC(N)=O)C(=O)N[C@H](CC(C)C)C(=O)N[C@H](CO)CC(C)C (stereo partly drawn) (Decanoyl-[Iva]P[X11][Iva]Q[dQ][Aib][Aib]Q[dL][Leu(ol)]),1780 nM,3380 nM
Cc1ccc(-c2nc(/C=N/Nc3cc(C)nc4ccc(Cl)cc34)c(C)o2)cc1,1730 nM,3260 nM
COc1ccc(C(=O)/C=C/c2cc(-c3cc(OC)c(OC)c(OC)c3)n[nH]2)cc1,1290 nM,2650 nM
COc1ccccc1S(=O)(=O)Nc1ccc2c3c(cc(CCC(=O)NCCCCNc4cccc5c4C(=O)N(C4CCC(=O)NC4=O)C5=O)cc13)C(=O)N2C (centres undefined),21.7 nM,87.2 nM
COc1cc(OC)cc(C2C3=C(COC3=O)Nc3cc(OC)ccc32)c1 (centres undefined),< 10 nM,< 12.2 nM
O=C1/C(=C/c2ccc(F)cc2)CN(C(=O)CCN2CCC(=NO)CC2)C/C1=C\c1ccc(F)cc1,1730 nM,4720 nM
CC(C)N(Cc1ccc(CN(C(=O)CCl)C(C)C)cc1)C(=O)CCl,1740 nM,3940 nM
COC(=O)N1CCN(CCNCc2ccc(NC(=O)c3ccc(C)c(C#Cc4cnc5cccnn45)c3)cc2C(F)(F)F)CC1,1580 nM,3200 nM
CCCCCCSSC(=S)N(CC)CC,29900 nM,> 100000 nM
COc1ccc(-c2nc(-c3nc4ccc(C)cc4[nH]3)cc3c2[nH]c2ccccc23)cc1,2690 nM,25000 nM
CNCCN(C)c1ccc(Nc2cc(NC3CC3)n3ncc(C#N)c3n2)cc1NC(C)=O,< 10.6 nM,62.6 nM
Cc1cc(C)c(C#N)c(Sc2nc(C)c([N+](=O)[O-])c(C)c2C#N)n1,1650 nM,3770 nM
CC/C(Cc1ccccc1)=C(\c1ccc(OCCN2CCCC2)cc1)c1ccc(OC(=O)NCc2ccccc2)cc1,1990 nM,3930 nM
Clc1ccc(-c2c3ccc(=[N+]4CCCCC4)cc-3oc3cc(N4CCCCC4)ccc23)cc1,104 nM,261 nM
N#CC1=C(N)Oc2c(ccc3ccccc23)C1c1cc(=O)oc2ccc(Cl)cc12 (centres undefined),520 nM,33000 nM
